Data published in PMC5366886, “Structure of the Cyanuric Acid Hydrolase TrzD Reveals Product Exit Channel” (Scientific Reports, 2017).

Assays:
TrzD = molecular target: T1, TrzD (Enterobacter cloacae, UniProt P0A3V4); experiment: co-crystallisation with substrate, X-ray […] A; co-product CO2 seen in density; type: biochemical; details: 10 mM cyanuric acid in drop, BIS-TRIS pH 6.5, 20 °C; Mg2+ bound in domain 3; turned over, cyanuric acid itself not reported in the model
T1 sequence (P0A3V4 1-370): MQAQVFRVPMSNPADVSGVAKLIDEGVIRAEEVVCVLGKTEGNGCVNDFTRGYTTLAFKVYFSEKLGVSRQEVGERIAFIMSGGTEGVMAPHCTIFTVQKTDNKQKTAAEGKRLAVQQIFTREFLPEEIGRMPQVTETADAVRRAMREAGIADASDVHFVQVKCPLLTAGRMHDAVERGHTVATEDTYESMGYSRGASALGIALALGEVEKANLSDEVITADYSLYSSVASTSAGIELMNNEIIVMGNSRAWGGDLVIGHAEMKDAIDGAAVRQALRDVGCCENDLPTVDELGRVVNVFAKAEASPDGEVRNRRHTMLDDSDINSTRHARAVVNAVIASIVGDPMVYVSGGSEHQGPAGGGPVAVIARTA

[1] = molecular target: the molecule itself; experiment: SEC + other: dynamic light scattering; purified TrzD in solution; conditions of this experiment not told

Molecule | co-crystallisation with substrate, X-ray 2.19 A; co-product CO2 seen in density (TrzD) | stoichiometry N [1]
O=c1[nH]c(=O)[nH]c(=O)[nH]1 [cyanuric acid, 1,3,5-triazinane-2,4,6-trione] | The protein was crystallized with its natural substrate cyanuric acid by hanging drop | –
TrzD, a cyanuric acid hydrolase from Acidovorax citrulli (enzyme, UniProt P0A3V4 1-370, looked up, TrzD, cyanuric acid hydrolase of Acidovorax citrulli; full-length trzD gene in pET28b(+); 370 amino acids, ~39.5 kDa; source: E. coli BL21 (DE3), purified (Ni-NTA, Superdex-200 gel filtration); not shown: His-tag, N-terminal, kept) MQAQVFRVPMSNPADVSGVAKLIDEGVIRAEEVVCVLGKTEGNGCVNDFTRGYTTLAFKVYFSEKLGVSRQEVGERIAFIMSGGTEGVMAPHCTIFTVQKTDNKQKTAAEGKRLAVQQIFTREFLPEEIGRMPQVTETADAVRRAMREAGIADASDVHFVQVKCPLLTAGRMHDAVERGHTVATEDTYESMGYSRGASALGIALALGEVEKANLSDEVITADYSLYSSVASTSAGIELMNNEIIVMGNSRAWGGDLVIGHAEMKDAIDGAAVRQALRDVGCCENDLPTVDELGRVVNVFAKAEASPDGEVRNRRHTMLDDSDINSTRHARAVVNAVIASIVGDPMVYVSGGSEHQGPAGGGPVAVIARTA | – | 4
